Results taken from patent US9051248B2, “Methods, compounds, and compositions for delivering 1,3-propanedisulfonic acid” (BHI Limited Partnership, priority 2009, dated 2015).
Where two headings read alike, the source gives them in different places.

How the values were obtained:
[1] = Water stability (conversion of prodrug to 1,3PDS); format: physicochemical; conditions: deionized water; for Conversion to 1,3PDS (%) 1 h / Conversion to 1,3PDS (%) 2 h: 37° C.; for Conversion to 1,3PDS (%) 0 h / Conversion to 1,3PDS (%) 24 h: room temperature; for Conversion to 1,3PDS (%) 0 h: 200 μg/mL
Experimental: (§1) The objective of this test was to determine the stability of the prodrugs in simulated gastric fluid (SGF) and water at 37° C. up to 2 hours and in water at room temperature up to 24 hours.
(§2) Simulated gastric fluid and water samples were incubated in a shaking water bath at 37° C. for up to 2 hours. The compound (prodrug) was added at Time-point 0. At each selected time point (refer to table), sample aliquots were withdrawn and analyzed to determine the concentration of 1,3-propanedisulfonic acid (1,3PDS). The concentrations of 1,3PDS were calculated based on their respective peak area. The % appearance of 1,3PDS was determined by the amounts of compound determined at each time point compared to nominal concentration (100%) of 1,3PDS generated by 100% of the prodrug (equivalent concentration).
A fresh stock solution at approximately 2 mg/mL of the compound was prepared. One stability solution at 200 μg/mL in the SGF was prepared (sample referred to as Tube A). A stability solution at 200 μg/mL in deionized water was prepared (sample referred to as Tube B). Immediately after preparation, each 200 μg/mL solution was diluted in triplicates to 20 μg/mL in deionized water and analyzed using LC-MS/MS method (Time-point 0). Thereafter, the incubation of tubes A and B was continued in the shaking water bath at 37° C. for 1 and 2 hours while one aliquot of tube B was kept at room temperature for 24 hours. At each specific time point of incubation, 3 aliquots (triplicate) of 50 μL were removed, diluted in 450 μL of water and analyzed using LC-MS/MS method. In parallel, 3 reference samples of 1,3PDS at 100, 10 and 1 μg/mL were prepared, diluted in triplicate in water and injected at the beginning and at the end of the batch. These samples were considered as reference samples.
(§3) The concentrations of 1,3PDS were calculated based on response of the reference samples and their respective peak area response. The % appearance of 1,3PDS was determined by the amounts of compound determined at each time point compared to expected nominal concentration (100%) of 1,3PDS generated by 100% of the prodrug (equivalent concentration).

[2] = Simulated gastric fluid (SGF) stability; format: in vitro ADME; conditions: SGF pH 1.5 with pepsin, 37° C.
Experimental: as §1, §2
Amounts of 0.2 g of sodium chloride and 0.32 g of pepsin were weighted and transferred into a 100-mL volumetric flask. Approximately 50 mL of deionized water was added and the mixture well mixed. A volume of 700 μL of hydrochloric acid was added, and the volume completed to 100 mL with deionized water. The resulting mixture was transferred in a polypropylene bottle and pH measured (pH=1.5).
A fresh stock solution at approximately 2 mg/mL of the compound was prepared. One stability solution at 200 μg/mL in the SGF was prepared (sample referred to as Tube A). […] Immediately after preparation, each 200 μg/mL solution was diluted in triplicates to 20 μg/mL in deionized water and analyzed using LC-MS/MS method (Time-point 0). […] At each specific time point of incubation, 3 aliquots (triplicate) of 50 μL were removed, diluted in 450 μL of water and analyzed using LC-MS/MS method. […]
as §3

[3] = Human whole blood stability; format: in vitro ADME; conditions: fresh human whole blood, 37° C.; for Conversion to 1,3PDS (% by molar ratio) 0 h: about 100 μg/mL
Experimental: The objective of this test was to determine the stability of the prodrugs in fresh human whole blood at different time-points (0, 0.5, 1, 4, 24 hours). Blood samples were incubated in a shaking water bath at 37° C. for up to 24 hours. The compound (prodrug) was added at Time-point 0, and sample aliquots were withdrawn and analyzed at each time point to determine the concentration of 1,3PDS. If possible, the loss of compound was determined by the amounts of compound determined at each time point compared to the amount determined at Time-point 0. To eliminate the conversion due to the matrix, a special Time-point 0 was prepared in pre-extracted blood sample.
Approximately 2.5 mL of whole blood was incubated in a gently shaking water bath at 37° C. for 15 minutes. Two (2) mL of the pre-incubated whole blood were aliquoted in an eppendorf tube. A 100 μL aliquot of blood was removed and 100 μL of the compound Stock Solution was added. The solution was mixed by inversion. This sample was referred to as Tube A. The final concentration of the compound in tube A was approximately at 100 μg/mL. Immediately after mixing, 100 μL of Tube A was aliquotted into 3 different eppendorf tubes. These samples were extracted as described in the “Extraction Procedure” Section. These samples were referred to Time-point 0. Thereafter, the incubation of Tube A was continued in the shaking water bath at 37° C. for 0.5, 1, 4 and 24 hours. At each specific time point of incubation, aliquots (triplicate) of 100 μL were removed and extracted as described in the “Extraction Procedure” Section. To avoid potential further degradation of compound and/or possible degradation products, the aliquot extracts were kept on ice until analysis. After extraction, samples were analyzed using LC-MS/MS method.
A volume of 300 μL of cold-ice acetonitrile was added to a 1.5 mL eppendorf tube and kept on ice until utilization. 100 μL of the sample to be extracted was added and the mix was vortexed (acetonitrile and blood). The sample was centrifuged at 16250×g (13200 rpm on IEC centrifuge with eppendorf rotor) for 5 minutes. A volume of 250 μL of the supernatant was transferred to another tube and evaporated to dryness under a nitrogen stream. The residue was reconstituted with the mobile phase. This sample was then analyzed according to 1,3PDS specific methods.
The concentrations of 1,3PDS were calculated based on the nominal concentration of the calibration standards and their respective peak area ratio. A linear regression using a weight of 1/x^2 is used to derive the concentration of 1,3PDS. The % appearance of 1,3PDS was determined by the amounts of compound determined at each time point compared to nominal concentration (100%) of 1,3PDS generated by 100% of the prodrug (equivalent concentration).

[4] = PK study in rats (1,3PDS plasma AUC after oral administration of prodrugs); conditions: rat plasma, oral gavage, dose molar equivalent to 100 mg/kg 1,3PDS(2Na)
Experimental: (§4) For 1,3PDS(2Na), the concentration in the dosing formulation was standardized to such a level that the dose would be 100 mg/kg (or 0.4 mmol/kg) for in vivo protocol specified dosing volume in a particular animal species. For a prodrug, the weight of sample in the dosing formulation varied based on molecular weight in such a way that equimolar dose (0.4 mmol/kg) for all the prodrugs would be administered when given same volume of dosing formulation to the animals. The dosing volume used for was 10 mL/kg for rats and monkeys, and 5 mL/kg for ferrets; or the concentration of dosing formulation was 0.04 mmol/mL for rats and monkeys, and 0.08 mmole/mL for ferrets. The vehicles used can either be water, 0.5% Methocel™ in water or 2% benzyl alcohol in corn oil. The dosing solution can either be a solution, a suspension or an emulsion. For different levels of doses, the amounts of the compounds used in the dosing formulation preparation were adjusted accordingly.
(§5) One group of four male Sprague-Dawley rats of age 7-9 weeks (body weight of 200-300 g) were fasted for 15 to 17 h before being dosed through oral gavage administration with the dosing solution/suspension prepared from test compounds according to Example 40 at a dose specified in Table 5 in a concentration adjusted to a dosing volume of 10 ml/kg-body weight. Food was supplied two hours post dose. Blood samples (200 μL blood) were collected into Sarstedt micro tubes (EDTA K3E/0.5 mL) from the jugular vein of each animal (4 animals/group) at pre-dose and at the following time-points of post-dose: 15 min., 30 min., 1 h, 2 h, 4 h, 6 h, 8 h, 12 h, and 24 h. The collected blood samples were kept on ice and then centrifuged at 4° C. at a minimum speed of 3000 rpm (1620G) for 10 min to prepare the plasma samples. The plasma samples were stored at −80° C. until analysis. An aliquot of dosing formulation was also taken prior to the dosing and stored at −20° C. for analysis.
(§6) 1,3PDS was extracted from an aliquot of rat, mouse, ferret or monkey plasma using protein precipitation and then injected into a liquid chromatograph equipped with a tandem mass spectrometry detector. Quantification was done by peak area ratio method. A weighted (1/X^2) linear regression was performed to back calculate the concentration of the analyte.
(§7) For the various pharmacokinetic studies conducted in rats, ferrets and monkeys, plasma (and blood) concentration-time data for the prodrug and 1,3PDS were analyzed by non-compartmental analysis (NCA) using the software program WinNonlin® Professional Version 5.2.1. In order to conduct the NCA, at least 3 measurable concentrations had to be available in a concentration-time profile. The following pharmacokinetic parameters were determined for plasma (or blood) data: Cmax, Tmax, AUC0-Tlast, AUC0-∞, λz, and T1/2. Since the prodrugs and 1,3PDS were administered at equimolar doses, the effect of the prodrugs on the bioavailability of 1,3PDS was assessed by comparing the Cmax and AUC of 1,3PDS after administering a prodrug with that after administering 1,3PDS.

[5] = rat, in vivo, po, 100 mg/kg
Experimental: as §4, §5, §6, §7

[6] = vehicle 2 0.5% Methocel in water

## COC(=O)c1ccccc1OS(=O)(=O)CCCS(=O)(=O)O [A32(Na)]
[1]
  Conversion to 1,3PDS (%) 1 h: 0.1%
  Conversion to 1,3PDS (%) 2 h: 0.1%
  Conversion to 1,3PDS (%) 0 h: 0.0%
  Conversion to 1,3PDS (%) 24 h: 0.0%
[2]; 0 h
  Conversion to 1,3PDS (%) 0 h: 0.0%
[2]; 1 h
  Conversion to 1,3PDS (%) 1 h: 0.0%
[2]; 2 h
  Conversion to 1,3PDS (%) 2 h: 0.0%
[3]
  Conversion to 1,3PDS (% by molar ratio) 0.5 h: 0.1 % by molar ratio
  Conversion to 1,3PDS (% by molar ratio) 1 h: 0.2 % by molar ratio
  Conversion to 1,3PDS (% by molar ratio) 4 h: 0.4 % by molar ratio
  Conversion to 1,3PDS (% by molar ratio) 24 h: 2.0 % by molar ratio
  Conversion to 1,3PDS (% by molar ratio) 0 h: 0.1 % by molar ratio
[4]; vehicle 1 water
  1,3PDS AUC0-Tlast: 1097 ng·h/mL

## CCOP(=O)(OCC)OCC(C)(C)COS(=O)(=O)CCCS(=O)(=O)[O-].[Na+] [A66(Na)]
[4]; [6]
  1,3PDS AUC0-Tlast: BLLQ

## CC(CO)(CO)COS(=O)(=O)CCCS(=O)(=O)O [A68(Na)]
[4]; [6]
  1,3PDS AUC0-Tlast: BLLQ

## CC(C)(COS(=O)(=O)CCCS(=O)(=O)OCC(C)(C)C(=O)OCc1ccccc1)C(=O)OCc1ccccc1 [Compound B30]
[1]
  Conversion to 1,3PDS (%) 1 h: 0.0%
  Conversion to 1,3PDS (%) 2 h: 0.0%
  Conversion to 1,3PDS (%) 0 h: 0.0%
  Conversion to 1,3PDS (%) 24 h: 0.0%
[3]
  Conversion to 1,3PDS (% by molar ratio) 0 h: BLLQ

## CC(C)(C#N)COS(=O)(=O)CCCS(=O)(=O)OCC(C)(C)C#N [Compound B71]
[4]; [6]
  1,3PDS AUC0-Tlast: BLLQ

## CC(C)(COS(=O)(=O)CCCS(=O)(=O)OCC(C)(C)[N+](=O)[O-])[N+](=O)[O-] [Compound B72]
[5]
  1,3PDS AUC0-Tlast: BLLQ

## CC(C)(C)C(C#N)OS(=O)(=O)CCCS(=O)(=O)OC(C#N)C(C)(C)C (stereo not drawn) [Compound B84]
[5]; male, Sprague-Dawley
  1,3PDS AUC0-Tlast: 2953 ng·h/mL

## O=S1(=O)CCCS(=O)(=O)O1 [Compound C1]
[1]
  Conversion to 1,3PDS (%) 1 h: 57.3%
  Conversion to 1,3PDS (%) 2 h: 63.1%
  Conversion to 1,3PDS (%) 0 h: 50.3%
  Conversion to 1,3PDS (%) 24 h: 61.2%
[3]
  Conversion to 1,3PDS (% by molar ratio) 0.5 h: AULQ
  Conversion to 1,3PDS (% by molar ratio) 1 h: AULQ
  Conversion to 1,3PDS (% by molar ratio) 4 h: AULQ
  Conversion to 1,3PDS (% by molar ratio) 24 h: AULQ
  Conversion to 1,3PDS (% by molar ratio) 0 h: AULQ

## O=S(O)CCCS(=O)O [P1(2Na)]
[4]; [6]
  1,3PDS AUC0-Tlast: BLLQ
